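How tested: cells in 96-well plates exposed to compound for 48 hours at five concentrations. TGI: total growth inhibition.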

Here are results for 12 compounds from PubChem BioAssay (NCI).

Test systems include KM12 colon; SK-MEL-2 melanoma; SK-OV-3 ovarian; SNB-75 CNS; UO-31 renal; SK-MEL-28 melanoma; OVCAR-3 ovarian; NCI-H460 lung; OVCAR-8 ovarian; A498 renal; SF-539 CNS; M14 melanoma; NCI-H522 lung; CCRF-CEM leukemia; IGROV1 ovarian; SW-620 colon; NCI/ADR-RES ovarian; HT29 colon; HCT-15 colon.
Assay in all cases: DTP human tumour cell line panel, 48 h

For `CC(C)Oc1cccc(N2C(=NCCc3c[nH]c4ccccc34)Nc3ccncc3S2(=O)=O)c1`, the TGI in the test with KM12 colon, with SK-MEL-2 melanoma, in the test on SK-OV-3 ovarian, in the test with SNB-75 CNS, with UO-31 renal and in the test with SK-MEL-28 melanoma was above 100 µM each time. In addition, the TGI in the test with OVCAR-3 ovarian, in the test with NCI-H460 lung, in the test with OVCAR-8 ovarian, in the test with A498 renal, with SF-539 CNS and in the test with M14 melanoma was above 100 µM throughout. In addition, the total growth inhibition concentration (TGI) with NCI-H522 lung is above 100 µM; with CCRF-CEM leukemia it was above 100 µM; with IGROV1 ovarian it was above 100 µM; in the test with SW-620 colon, above 100 µM; with NCI/ADR-RES ovarian it was above 100 µM; with HT29 colon, 20.3 µM. In the test with HCT-15 colon, the TGI is above 100 µM.

Turning to `COc1nc2c(c(=O)n1C)N=C(c1ccccc1)[C@H](C(CC(=O)c1ccccc1)c1ccccc1)C(c1ccccc1)N2` (some centres undefined), the TGI in the test with KM12 colon is above 100 µM; in the test with SK-MEL-2 melanoma, above 100 µM; in the test with SK-OV-3 ovarian, above 100 µM; with SNB-75 CNS, 44.5 µM; with UO-31 renal it was above 100 µM; in the test on SK-MEL-28 melanoma it was above 100 µM. Also, the TGI with OVCAR-3 ovarian, in the test with OVCAR-8 ovarian, in the test with A498 renal, with SF-539 CNS, with M14 melanoma and in the test on NCI-H522 lung was above 100 µM each time. Moreover, the TGI in the test on CCRF-CEM leukemia, with IGROV1 ovarian, with SW-620 colon, in the test on NCI/ADR-RES ovarian and with HT29 colon was above 100 µM throughout.

Take `O=C1NNC2NC(=O)C3(NN2C1=O)c1ccccc1-c1ccccc13` (centres undefined): the TGI with SK-MEL-2 melanoma, in the test on SK-OV-3 ovarian, in the test with SNB-75 CNS, with UO-31 renal, in the test with OVCAR-3 ovarian and in the test with NCI-H460 lung was above 100 µM each time. The TGI in the test with OVCAR-8 ovarian, with A498 renal, in the test on SF-539 CNS, in the test with M14 melanoma, in the test with NCI-H522 lung and with CCRF-CEM leukemia was above 100 µM each time. Besides, the TGI with IGROV1 ovarian, with SW-620 colon, in the test with NCI/ADR-RES ovarian, with HT29 colon and in the test on HCT-15 colon was above 100 µM in each case.

With `CCS(=O)(=O)CCn1c(=O)c2c(ncn2C)n(C)c1=O`, the total growth inhibition concentration (TGI) in the test with KM12 colon, in the test on SK-MEL-2 melanoma, in the test on SNB-75 CNS, with UO-31 renal, with SK-MEL-28 melanoma and in the test with OVCAR-3 ovarian was above 100 µM in each case. Besides, the TGI with NCI-H460 lung, in the test on OVCAR-8 ovarian, in the test with A498 renal, with SF-539 CNS, with M14 melanoma and with NCI-H522 lung was above 100 µM in each case. Further, the TGI with CCRF-CEM leukemia, in the test with IGROV1 ovarian, with SW-620 colon, with NCI/ADR-RES ovarian, with HT29 colon and in the test on HCT-15 colon was above 100 µM each time.

Consider `COc1ccc(NC(C)=O)c(C(O)CCNC(C)=O)c1` (centres undefined), for which the TGI with KM12 colon, in the test with SK-MEL-2 melanoma, in the test with SK-OV-3 ovarian, in the test with SNB-75 CNS, in the test on UO-31 renal and with OVCAR-3 ovarian was above 100 µM throughout. Further, the TGI in the test with NCI-H460 lung, in the test on OVCAR-8 ovarian, in the test on A498 renal, in the test on SF-539 CNS, in the test with M14 melanoma and in the test with NCI-H522 lung was above 100 µM each time. The concentration for total growth inhibition (TGI) in the test with CCRF-CEM leukemia, with IGROV1 ovarian, in the test with SW-620 colon, in the test with NCI/ADR-RES ovarian, in the test with HT29 colon and in the test on HCT-15 colon was above 100 µM each time.

Regarding `CC(C)(C)OC(=O)NCCCC(=O)NC1(c2cc3ccccc3s2)CCCCC1`, the TGI is 38.9 µM with KM12 colon; 99.5 µM in the test with SK-OV-3 ovarian; 27.7 µM with SNB-75 CNS; 14.8 µM in the test with UO-31 renal; 31.3 µM with SK-MEL-28 melanoma; 39.2 µM in the test on OVCAR-3 ovarian. In addition, the TGI was found to be 40.1 µM in the test with NCI-H460 lung; 48.3 µM in the test with OVCAR-8 ovarian; 51 µM in the test with A498 renal; 30.7 µM in the test on SF-539 CNS; 40.1 µM in the test on M14 melanoma; 34.1 µM with NCI-H522 lung. Also, the TGI with CCRF-CEM leukemia was determined as 28.4 µM; with IGROV1 ovarian it was 46.2 µM; with SW-620 colon, 52.8 µM; in the test on NCI/ADR-RES ovarian, 70 µM; in the test with HT29 colon, 30.6 µM; with HCT-15 colon it was 45.5 µM.

Regarding `O=c1[nH]c(=O)n(C2CC(O)C(CO)O2)c2nc3ccc4cc5ccccc5cc4c3nc12` (centres undefined), the TGI in the test with KM12 colon, with SK-MEL-2 melanoma, with SK-OV-3 ovarian, in the test with SNB-75 CNS, in the test on UO-31 renal and with SK-MEL-28 melanoma was above 100 µM in each case. In addition, the TGI in the test on OVCAR-3 ovarian, in the test on OVCAR-8 ovarian, in the test with A498 renal, in the test on SF-539 CNS, in the test on M14 melanoma and in the test on NCI-H522 lung was above 100 µM each time. Further, the TGI in the test on CCRF-CEM leukemia, in the test with IGROV1 ovarian, with SW-620 colon, in the test on NCI/ADR-RES ovarian, with HT29 colon and in the test on HCT-15 colon was above 100 µM throughout.

Consider `Cc1ccc(OCC2OC(n3cnc4c(Cl)nc(Cl)nc43)CC2Oc2ccc(C)cc2)cc1` (centres undefined), for which the concentration for total growth inhibition (TGI) stood at 3.09 µM in the test on KM12 colon; 5.26 µM with SK-MEL-2 melanoma; 35.9 µM with SK-OV-3 ovarian; 5.39 µM in the test with SNB-75 CNS; 7.56 µM in the test on SK-MEL-28 melanoma; 6 µM with OVCAR-3 ovarian. The TGI in the test on NCI-H460 lung worked out at 3.39 µM; in the test on OVCAR-8 ovarian, 5.39 µM; in the test on A498 renal, 44.8 µM; with SF-539 CNS, 4.04 µM; in the test on M14 melanoma it was 3.99 µM; in the test on NCI-H522 lung, 3.82 µM. Moreover, the TGI in the test on CCRF-CEM leukemia was above 100 µM; in the test with IGROV1 ovarian, 4.48 µM; in the test on SW-620 colon, above 100 µM; in the test on NCI/ADR-RES ovarian, 4.37 µM; in the test with HT29 colon it was 2.91 µM; in the test on HCT-15 colon it was 3.27 µM.

In the case of `COC(=O)C(COC(=O)/C=C/c1ccc(OC(C)=O)c(OC(C)=O)c1)NC(=O)/C=C/c1ccc(OC(C)=O)c(OC(C)=O)c1` (centres undefined), the TGI was 38.8 µM in the test on KM12 colon; 36.3 µM in the test on SK-MEL-2 melanoma; above 100 µM with SK-OV-3 ovarian; above 100 µM in the test on SNB-75 CNS; 81.7 µM in the test on SK-MEL-28 melanoma; 33.7 µM in the test with OVCAR-3 ovarian. For the same compound, the TGI with NCI-H460 lung was 48.1 µM; in the test on OVCAR-8 ovarian, above 100 µM; in the test with A498 renal, above 100 µM; in the test with SF-539 CNS, above 100 µM; in the test on M14 melanoma, 39.5 µM; with NCI-H522 lung it was 37.8 µM. Further, the TGI with CCRF-CEM leukemia is above 100 µM; with IGROV1 ovarian it was above 100 µM; with SW-620 colon, above 100 µM; with NCI/ADR-RES ovarian, above 100 µM; with HT29 colon, 48 µM; in the test with HCT-15 colon, above 100 µM.

On to `O=S1(=O)OCCOS(=O)(=O)C1Cc1cccc2ccccc12`, for which the TGI with SK-MEL-2 melanoma was above 100 µM; in the test with SK-OV-3 ovarian it was 70.7 µM; in the test with SNB-75 CNS, above 100 µM; with UO-31 renal, 48.8 µM; with SK-MEL-28 melanoma, 21.5 µM; in the test with NCI-H460 lung, 35.4 µM. In addition, the TGI in the test on OVCAR-8 ovarian was found to be 34.7 µM; with A498 renal, 28.9 µM; with SF-539 CNS it was 39.9 µM; in the test on M14 melanoma, 54.9 µM; with NCI-H522 lung it was 47.8 µM; in the test with CCRF-CEM leukemia, 40.5 µM. The TGI in the test on IGROV1 ovarian was 28.6 µM; with SW-620 colon, above 100 µM; in the test on NCI/ADR-RES ovarian, 54.8 µM; in the test with HT29 colon it was 71.4 µM; in the test with HCT-15 colon, 87.1 µM.

On to `CSc1nc(C)c(CCOC(C)=O)c(Cl)n1`, for which the TGI in the test with KM12 colon, in the test on SK-OV-3 ovarian, with SNB-75 CNS, with UO-31 renal, with SK-MEL-28 melanoma and in the test on OVCAR-3 ovarian was above 100 µM throughout. Besides, the TGI with NCI-H460 lung, with OVCAR-8 ovarian, with A498 renal, in the test with SF-539 CNS, in the test on M14 melanoma and in the test with NCI-H522 lung was above 100 µM throughout. For the same compound, the total growth inhibition concentration (TGI) in the test on CCRF-CEM leukemia, with IGROV1 ovarian, in the test on SW-620 colon, in the test on NCI/ADR-RES ovarian, with HT29 colon and in the test with HCT-15 colon was above 100 µM in each case.

Turning to `CC(=O)c1ccc2c(c1)CC1(C2)Cc2ccc3c(c2C1=O)CCC3` (centres undefined), the TGI with KM12 colon is above 100 µM; with SK-MEL-2 melanoma, 35.5 µM; in the test with SK-OV-3 ovarian, above 100 µM; in the test on SNB-75 CNS, 91.3 µM; in the test on UO-31 renal, above 100 µM; in the test with SK-MEL-28 melanoma it was 56.5 µM. For the same compound, the TGI in the test on OVCAR-3 ovarian is above 100 µM; in the test with NCI-H460 lung, above 100 µM; in the test on A498 renal, above 100 µM; with SF-539 CNS it was above 100 µM; in the test on M14 melanoma it was 64.8 µM; in the test with NCI-H522 lung, 54.6 µM. Besides, the TGI in the test on CCRF-CEM leukemia was above 100 µM; in the test on IGROV1 ovarian it was above 100 µM; in the test with SW-620 colon it was above 100 µM; with NCI/ADR-RES ovarian, 71.9 µM; in the test on HT29 colon it was 31.6 µM; in the test with HCT-15 colon it was above 100 µM.

By TGI is commonly meant the concentration giving total growth inhibition. A high value points to lower sensitivity of the cells.
